{
  "source": "patent US12240818B2",
  "about": "“Crystalline forms of plasma kallikrein inhibitors” (Rezolute, Inc., priority 2019, dated 2025)",
  "key": {"[1]": {"system": "angiotensin-II-treated rodents", "details": "cited from earlier work"}, "[2]": {"system": "rat model of ischemic stroke", "details": "cited from earlier work"}, "[3]": {"system": "model of hemorrhagic stroke", "details": "cited from earlier work"}, "[4]": {"assay": "Grinding stability of crystalline forms (XRPD, thermal)", "assay_type": "physicochemical", "procedure": "X-Ray Powder Diffraction patterns were collected under ambient conditions (about 20° C.) on a PANalytical X'Pert PRO X-ray diffractometer (Malvern Panalytical, Malvern, UK) using Cu Kα radiation (45 kV, 40 mA), θ-θ goniometer, focusing mirror, divergence slit (½″), Soller slits at both incident and divergent beam (4 mm), a transmission foil sample stage (Kapton® polyimide, 12.7 μm thickness film), and a PIXcel detector. The software used for data collection was X'Pert Data Collector, version 2.2f, and the data was presented using X'Pert Data Viewer, version 1.2d. The data collection range was 2.994-35°2θ with a continuous scan speed of 0.202004° s^−1.\nDifferential scanning calorimetry data was collected on a PerkinElmer Pyris 6000 DSC equipped with a 45 position sample holder. The instrument was verified for energy and temperature calibration using certified indium. In the examples below, a predefined amount of the sample (0.5-3.0 mg) was placed in a pin holed aluminum pan and heated at 20° C./min from 30° C. to 350° C., or varied as experimentation dictated. A purge of dry nitrogen at 20 mL/min was maintained over the sample. The instrument control, data acquisition and analysis were performed with Pyris Software v11.1.1 revision H.\nThermo-Gravimetric Analysis data was collected on a PerkinElmer Pyris 1 TGA equipped with a 20 position auto-sampler. The instrument was calibrated using a certified weight and certified Alumel and Perkalloy for temperature. In the examples below, a predefined amount of the sample (˜5 mg) was loaded onto a pre-tared aluminum crucible and was heated at 20° C./min from ambient temperature to 400° C. unless otherwise stated. A nitrogen purge at 20 mL/min was maintained over the sample. The instrument control, data acquisition and analysis were performed with Pyris Software v11.1.1 revision H.\nSamples of both Form I and Form II (about 100 mg each) were subjected to grinding operations to assess the impact on solid form and observed microscopy. It was of interest to note whether amorphous content was generated, and to review the impact upon water content for the batches, especially with regards to Form II hydrate."}, "[5]": {"assay": "Aqueous solubility of solid forms", "assay_type": "physicochemical", "details": "for aqueous solubility: at 25° C., acetate"}, "[6]": {"assay": "Compression stability of crystalline forms (XRPD, TGA, DSC)", "assay_type": "physicochemical", "details": "compression under 11×10^5 N force for about 25-28 hours; acetate", "procedure": "X-Ray Powder Diffraction patterns were collected under ambient conditions (about 20° C.) on a PANalytical X'Pert PRO X-ray diffractometer (Malvern Panalytical, Malvern, UK) using Cu Kα radiation (45 kV, 40 mA), θ-θ goniometer, focusing mirror, divergence slit (½″), Soller slits at both incident and divergent beam (4 mm), a transmission foil sample stage (Kapton® polyimide, 12.7 μm thickness film), and a PIXcel detector. The software used for data collection was X'Pert Data Collector, version 2.2f, and the data was presented using X'Pert Data Viewer, version 1.2d. The data collection range was 2.994-35°2θ with a continuous scan speed of 0.202004° s^−1. Differential scanning calorimetry data was collected on a PerkinElmer Pyris 6000 DSC equipped with a 45 position sample holder. The instrument was verified for energy and temperature calibration using certified indium. In the examples below, a predefined amount of the sample (0.5-3.0 mg) was placed in a pin holed aluminum pan and heated at 20° C./min from 30° C. to 350° C., or varied as experimentation dictated. A purge of dry nitrogen at 20 mL/min was maintained over the sample. The instrument control, data acquisition and analysis were performed with Pyris Software v11.1.1 revision H. Thermo-Gravimetric Analysis data was collected on a PerkinElmer Pyris 1 TGA equipped with a 20 position auto-sampler. The instrument was calibrated using a certified weight and certified Alumel and Perkalloy for temperature. In the examples below, a predefined amount of the sample (˜5 mg) was loaded onto a pre-tared aluminum crucible and was heated at 20° C./min from ambient temperature to 400° C. unless otherwise stated. A nitrogen purge at 20 mL/min was maintained over the sample. The instrument control, data acquisition and analysis were performed with Pyris Software v11.1.1 revision H. The manufacturing process for solid dosage forms can require high compression and/or grinding, which may cause a change in crystal structure for some compounds. Compound 1 Form I and Form II were subjected to compression under 11×10^5N force for about 25-28 hours to assess the impact of compression upon the form stability of these crystalline forms."}, "[7]": {"system": "patients with hereditary angioedema", "details": "cited from earlier work"}, "[8]": {"system": "animal model of ischemic stroke", "details": "cited from earlier work"}, "[9]": {"system": "mouse model of middle cerebral artery occlusion", "details": "cited from earlier work"}},
  "data": [
    {"molecule": "CC(=O)O.N=C(N)c1ccc(CNC(=O)c2cnn(Cc3ccccc3)c2)cc1", "note": "[Compound 1, 1-benzyl-N-(4-carbamimidoylbenzyl)-1H-pyrazole-4-carboxamide acetate salt]", "values": [
      {"measurement": "retinal vascular permeability", "setting": "[1]", "value": "reduce retinal vascular permeability"},
      {"measurement": "infarction volume and cerebrovascular edema", "setting": "[2]", "value": "reduce infarction volume and cerebrovascular edema"},
      {"measurement": "expansion of intracerebral hemorrhage", "setting": "[3]", "value": "reduce"}
    ]},
    {"molecule": "CC(=O)O.N=C(N)c1ccc(CNC(=O)c2cnn(Cc3ccccc3)c2)cc1", "note": "[Form I, 1-benzyl-N-(4-carbamimidoylbenzyl)-1H-pyrazole-4-carboxamide acetate]", "values": [
      {"measurement": "stability under manual stress", "setting": "[4]; compression and grinding, summary", "value": "superior stability to hydrated Form II"},
      {"measurement": "solubility", "setting": "[5]; water, 25 °C", "value": "~8300", "unit": "µg/mL"},
      {"measurement": "DSC thermograph change following compression", "setting": "[6]", "value": "reduction in the intensity and temperature of the melt endotherm"},
      {"measurement": "TGA thermograph change following compression", "setting": "[6]", "value": "no change in the TGA thermograph"},
      {"measurement": "XRPD pattern change following compression", "setting": "[6]", "value": "subtle reduction in diffraction resolution"}
    ]},
    {"molecule": "CC(=O)O.N=C(N)c1ccc(CNC(=O)c2cnn(Cc3ccccc3)c2)cc1", "note": "[Form II, 1-benzyl-N-(4-carbamimidoylbenzyl)-1H-pyrazole-4-carboxamide acetate]", "values": [
      {"measurement": "change of solid form post-grinding (thermal, XRPD)", "setting": "[4]; about 100 mg ground", "value": "minor alteration in reflection resolution and intensity"},
      {"measurement": "water content post-grinding", "setting": "[4]; after grinding", "value": 3.93, "unit": "wt %"},
      {"measurement": "water content at point of production", "setting": "[4]; before grinding", "value": 2.76, "unit": "wt %"},
      {"measurement": "aqueous solubility", "setting": "[5]", "value": "about 5.5 mg/mL"},
      {"measurement": "DSC thermograph change following compression", "setting": "[6]", "value": "reduction in the intensity, but increase of the temperature of the main melt endotherm"},
      {"measurement": "TGA thermograph change following compression", "setting": "[6]", "value": "slight increase in the water content"},
      {"measurement": "XRPD pattern change following compression", "setting": "[6]", "value": "significant change in the diffraction pattern to a pattern of reduced crystallinity"}
    ]},
    {"molecule": "CC(=O)O.N=C(N)c1ccc(CNC(=O)c2cnn(Cc3ccccc3)c2)cc1", "note": "[Form III, 1-benzyl-N-(4-carbamimidoylbenzyl)-1H-pyrazole-4-carboxamide acetate]", "values": [
      {"measurement": "aqueous solubility", "setting": "[5]", "value": "about 7.2 mg/mL"}
    ]},
    {"molecule": "CC(=O)O.N=C(N)c1ccc(CNC(=O)c2cnn(Cc3ccccc3)c2)cc1", "note": "[Form V, 1-benzyl-N-(4-carbamimidoylbenzyl)-1H-pyrazole-4-carboxamide acetate]", "values": [
      {"measurement": "aqueous solubility", "setting": "[5]", "value": "about 7.1 mg/mL"}
    ]},
    {"molecule": "NC(N)=NCCC[C@@H](N)C(=O)N[C@@H](CCCN=C(N)N)C(=O)N1CCC[C@H]1C(=O)N1C[C@H](O)C[C@H]1C(=O)NCC(=O)N[C@@H](Cc1cccs1)C(=O)N[C@@H](CO)C(=O)N1Cc2ccccc2C[C@@H]1C(=O)N1[C@H](C(=O)N[C@@H](CCCN=C(N)N)C(=O)O)C[C@@H]2CCCC[C@@H]21", "note": "[icatibant]", "values": [
      {"measurement": "effect on hereditary angioedema", "setting": "[7]", "value": "effective"}
    ]},
    {"molecule": "Ecallantide", "values": [
      {"measurement": "brain edema, infarct volume and neurological deficits", "setting": "[8]", "value": "reduced brain edema, infarct volume and neurological deficits"},
      {"measurement": "effect on hereditary angioedema", "setting": "[7]", "value": "alleviates edema"}
    ]},
    {"molecule": "Hoe-140 [reference compound]", "values": [
      {"measurement": "retinal vascular permeability", "setting": "[1]", "value": "reduce retinal vascular permeability"}
    ]},
    {"molecule": "C1-INH: the major endogenous inhibitor of PK (protein, UniProt P05155 23-500, looked up) Plasma protease C1 inhibitor: NPNATSSSSQDPESLQDRGEGKVATTVISKMLFVEPILEVSSLPTTNSTTNSATKITANTTDEPTTQPTTEPTTQPTIQPTQPTTQLPTDSPTQPTTGSFCPGPVTLCSDLESHSTEAVLGDALVDFSLKLYHAFSAMKKVETNMAFSPFSIASLLTQVLLGAGENTKTNLESILSYPKDFTCVHQALKGFTTKGVTSVSQIFHSPDLAIRDTFVNASRTLYSSSPRVLSNNSDANLELINTWVAKNTNNKISRLLDSLPSDTRLVLLNAIYLSAKWKTTFDPKKTRMEPFHFKNSVIKVPMMNSKKYPVAHFIDQTLKAKVGQLQLSHNLSLVILVPQNLKHRLEDMEQALSPSVFKAIMEKLEMSKFQPTLLTLPRIKVTTSQDMLSIMEKLEFFDFSYDLNLCGLTEDPDLQVSAMQHQTVLELTETGVEAAAASAISVARTLLVFEVQQPFLFVLWDQQHKFPVFMGRVYDPRA", "values": [
      {"measurement": "infarct size", "setting": "[9]", "value": "reduced infarct size"}
    ]}
  ]
}
